Experimental findings from ChEMBL document CHEMBL1201862, “PubChem BioAssay data set” (2004) are described below.

Molecules are shown by their SMILES.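 Cultured in 96-well plates, cells were exposed to test compound for 48 hours across five concentrations. GI50: concentration for 50% inhibition of growth.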 The source made the active and inactive calls. No stated cut-off is given here; in the data, active = GI50 up to about 1.1 µM and inactive = higher. A value given as a limit tells only on which side of the number the result lay.

Some test systems named below: KM12; HCC 2998; OVCAR-8; TK-10; HOP-62; HCT-116; SN12C; HOP-92; CAKI-1; M14; MDA-MB-231; Malme-3M; T47D; PC-3; SK-MEL-5; EKVX; A549; HT-29; NCI-H522; DMS-273.
What all share (assay): NCI anticancer screen, dose series, 48 h

On to `Cc1cn(C2CC(O)C(Cn3nncc3Cn3ncc(=O)[nH]c3=O)O2)c(=O)[nH]c1=O` (centres undefined), for which the GI50 in the assay with KM12, in the assay on HCC 2998, with OVCAR-8, in the assay on TK-10, with HOP-62 and in the assay with HCT-116 was > 100 µM (inactive) each time. Also, the GI50 with SN12C, with HOP-92, with CAKI-1, with M14, in the assay on MDA-MB-231 and in the assay with Malme-3M was > 100 µM (inactive) each time. In addition, the GI50 with T47D, with PC-3, in the assay on SK-MEL-5, in the assay on EKVX and in the assay on A549 was > 100 µM (inactive) throughout.
As to `N#CCCC1C(C#N)C2(Cl)CC1(Cl)C(Cl)=C2Cl` (centres undefined), the GI50 in the assay on KM12, with HCC 2998, in the assay with OVCAR-8, in the assay on TK-10, in the assay with HOP-62 and in the assay on HCT-116 was > 10 µM (inactive) each time. Also, the GI50 in the assay on SN12C, in the assay on CAKI-1, in the assay with M14, with MDA-MB-231, in the assay on Malme-3M and in the assay with T47D was > 10 µM (inactive) in each case. Moreover, the GI50 in the assay on PC-3 is > 10 µM (inactive); in the assay on SK-MEL-5 it was > 10 µM (inactive); in the assay with HT-29, > 10 µM (inactive); in the assay on NCI-H522, 3.59 µM (inactive); with EKVX, > 10 µM (inactive); in the assay with A549, > 10 µM (inactive).
Consider `CC[N+]1(C)CCC(O)(c2ccc(Cl)cc2)C(C(=O)c2ccc(Cl)cc2)C1` (centres undefined), for which the GI50 in the assay with KM12 is 16.9 µM (inactive); with HCC 2998, 19.9 µM (inactive); with OVCAR-8, 46.6 µM (inactive); in the assay on TK-10 it was 17.7 µM (inactive); in the assay with HOP-62 it was 23.8 µM (inactive); with HCT-116, 10.3 µM (inactive). The GI50 with SN12C is 22.1 µM (inactive); in the assay with HOP-92, > 10 µM (inactive); with M14, 17.4 µM (inactive); with MDA-MB-231, 14.9 µM (inactive); in the assay on Malme-3M, 7.31 µM (inactive); in the assay on T47D it was 2.79 µM (inactive). Besides, the GI50 in the assay with PC-3 is 17.5 µM (inactive); in the assay with HT-29, 29.1 µM (inactive); in the assay with NCI-H522 it was 1.79 µM (inactive); with EKVX, > 10 µM (inactive).
For the compound `CCCCOC(=O)CN1C(=O)c2ccccc2C1=O`, the GI50 with DMS-273, in the assay with KM12, with HCC 2998, with OVCAR-8, with TK-10 and with HOP-62 was > 100 µM (inactive) in each case. In addition, the GI50 in the assay with HCT-116 was > 100 µM (inactive); with HOP-92, > 100 µM (inactive); with CAKI-1, 84.5 µM (inactive); in the assay with M14 it was > 100 µM (inactive); with Malme-3M, > 100 µM (inactive); in the assay with SK-MEL-5 it was > 100 µM (inactive). Further, the GI50 in the assay on HT-29, with NCI-H522, in the assay on EKVX and in the assay with A549 was > 100 µM (inactive) each time.
Turning to `C=C(C)C1CC2=C(O1)C(=O)c1ccccc1C2=O` (stereo not drawn) [DEHYDROISO-ALPHA-LAPACHONE], the GI50 was 17.4 µM (inactive) in the assay with DMS-273; 18.3 µM (inactive) with KM12; 19.1 µM (inactive) in the assay on HCC 2998; 17.3 µM (inactive) in the assay with OVCAR-8; 23 µM (inactive) in the assay with TK-10; 19.6 µM (inactive) in the assay with HOP-62. The GI50 in the assay on SN12C is 19.1 µM (inactive); in the assay on HOP-92 it was 16.3 µM (inactive); in the assay on CAKI-1, 17.6 µM (inactive); in the assay on M14, 18.5 µM (inactive); in the assay with SK-MEL-5, 14 µM (inactive); with HT-29 it was 20.9 µM (inactive). Further, the GI50 with NCI-H522 was 20.7 µM (inactive); with EKVX it was 25.7 µM (inactive); in the assay with A549 it was 21 µM (inactive).
On to `O=c1n(CC2CO2)c2ccccc2n1CC1CS1` (centres undefined), for which the GI50 in the assay on DMS-273, in the assay on KM12, with HCC 2998, in the assay with OVCAR-8, in the assay on TK-10 and in the assay with HOP-62 was > 100 µM (inactive) each time. Moreover, the GI50 in the assay with HCT-116 is 67.3 µM (inactive); in the assay with SN12C, > 100 µM (inactive); in the assay with HOP-92, > 100 µM (inactive); with CAKI-1, 45.1 µM (inactive); in the assay on M14, > 100 µM (inactive); in the assay on Malme-3M it was > 100 µM (inactive). Moreover, the GI50 was > 10 µM (inactive) in the assay on HT-29, > 100 µM (inactive) in the assay on NCI-H522, > 100 µM (inactive) in the assay on EKVX and > 100 µM (inactive) in the assay with A549.
`CCOC(=O)c1csc(NC(=O)CN(C)C)n1`: the GI50 with KM12, in the assay with HCC 2998, in the assay on OVCAR-8, with TK-10, in the assay with HOP-62 and with HOP-92 was > 100 µM (inactive) each time. For the same compound, the GI50 in the assay on CAKI-1, with M14, in the assay with MDA-MB-231, in the assay on T47D, in the assay with PC-3 and in the assay on SK-MEL-5 was > 100 µM (inactive) throughout. Moreover, the GI50 in the assay on HT-29, in the assay with EKVX and with A549 was > 100 µM (inactive) each time.
Regarding `CN1NC(c2ccccc2)=C(C#N)C(=O)CC1c1ccc(F)cc1` (centres undefined), the GI50 in the assay with DMS-273, with KM12, in the assay on HCC 2998, in the assay on TK-10, in the assay with HCT-116 and with SN12C was > 100 µM (inactive) in each case. Moreover, the GI50 in the assay with HOP-92 was > 100 µM (inactive); in the assay on CAKI-1 it was > 100 µM (inactive); in the assay on Malme-3M it was > 100 µM (inactive); with SK-MEL-5, > 100 µM (inactive); in the assay on HT-29, > 100 µM (inactive); in the assay on NCI-H522 it was 62.4 µM (inactive). In addition, the GI50 in the assay with A549 was > 100 µM (inactive).
In the case of `COC(c1ccc(C(C)(C)C)cc1)(c1ccc(C(C)(C)C)cc1)c1cc(C(O)(c2cc(C(OC)(c3ccc(C(C)(C)C)cc3)c3ccc(C(C)(C)C)cc3)c(C)cc2C)c2cc(C(OC)(c3ccc(C(C)(C)C)cc3)c3ccc(C(C)(C)C)cc3)c(C)cc2C)c(C)cc1C`, the GI50 in the assay on HCC 2998, in the assay with OVCAR-8, with TK-10, in the assay with HOP-62, in the assay on HCT-116 and with HOP-92 was > 100 µM (inactive) each time. In addition, the GI50 with CAKI-1, in the assay on M14, in the assay with MDA-MB-231, in the assay with Malme-3M, in the assay on T47D and in the assay with PC-3 was > 100 µM (inactive) in each case. Further, the GI50 with SK-MEL-5, in the assay on HT-29, in the assay on EKVX and in the assay with A549 was > 100 µM (inactive) each time.
For `CCOc1ccc(C(C)c2cc3c(cc2OC)OCO3)cc1` (centres undefined), the GI50 was 0.245 µM (active) with DMS-273; 0.466 µM (active) in the assay with HCC 2998; 0.424 µM (active) with OVCAR-8; 0.353 µM (active) in the assay on TK-10; 0.323 µM (active) with HOP-62; 0.371 µM (active) with HCT-116. In addition, the GI50 in the assay with SN12C was 0.484 µM (active); in the assay with HOP-92, 0.855 µM (active); in the assay on CAKI-1, 0.834 µM (active); in the assay on M14 it was 0.361 µM (active); in the assay with Malme-3M, 0.457 µM (active); in the assay on SK-MEL-5, 0.269 µM (active). The results for the GI50 with HT-29, in the assay on NCI-H522 and in the assay on A549 were 0.237 µM (active), 0.0316 µM (active) and 0.455 µM (active), respectively.
In the case of `CC1(C)CCc2cc3c(-c4ccccc4)cc(=O)oc3cc2O1`, the GI50 was > 100 µM (inactive) with DMS-273; > 100 µM (inactive) with OVCAR-8; > 100 µM (inactive) in the assay with TK-10; > 100 µM (inactive) in the assay with SN12C; 21.1 µM (inactive) in the assay on HOP-92; > 100 µM (inactive) in the assay with CAKI-1. The GI50 in the assay on M14, in the assay on Malme-3M, with SK-MEL-5, with HT-29, with NCI-H522 and in the assay on EKVX was > 100 µM (inactive) in each case.
Take `Cc1ccc(Cl)cc1/N=N/C(=O)NNc1cc(Cl)ccc1C`: the GI50 was 33.1 µM (inactive) in the assay on KM12; 40.4 µM (inactive) in the assay on HCC 2998; 10.8 µM (inactive) in the assay with HOP-62; 25.4 µM (inactive) in the assay on HCT-116; 29.4 µM (inactive) with SN12C; 15.5 µM (inactive) with HOP-92. In addition, the GI50 with CAKI-1 was 13.1 µM (inactive); with M14 it was 14.5 µM (inactive); in the assay on MDA-MB-231 it was 16.8 µM (inactive); in the assay with Malme-3M, 24 µM (inactive); in the assay on T47D, 33.3 µM (inactive); in the assay on PC-3, 10.1 µM (inactive). Moreover, the GI50 was 14.2 µM (inactive) in the assay on SK-MEL-5, 26.9 µM (inactive) in the assay on HT-29 and 13.1 µM (inactive) in the assay with NCI-H522.
